The subject of assay [1] is BaF3-FL KIT D816V or BaF3-FL KIT V560G/D816V cell line. The assay can be described thus: Cell-based assays of c-Kit mutant kinase activity (cell proliferation, ATPlite). To be noted: at least one of the c-kit cell assays of Example 7. The gist of the method: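 BaF3 cells dependent on transfected full-length human KIT D816V or V560G/D816V (pCI-Neo, CMV promoter) were seeded at 1×10^4 cells/well and exposed to 8-point 1:3 dilutions from 10 μM top (0.2% DMSO) for three days at 37° C. ATPlite luminescence gave cell number; IC50 from concentration-response.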

A further assay addresses c-Kit kinase (Homo sapiens (Human), UniProt P10721). The assay can be described thus: c-Kit biochemical assay (AlphaScreen kinase activity). Summed up: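 IC50 values come from 8-point, 1:3 compound titrations measuring inhibition of peptide phosphorylation by c-Kit (commercial or His-tagged E. coli-expressed) over 1 h at room temperature, read by AlphaScreen PY30/streptavidin beads. Low-ATP version: 10 μM ATP, 100 nM biotin-(E4Y)3; high-ATP version: 100 μM ATP, 30 nM biotin-(E4Y)10.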

pIC50: −log10 of the molar value.

Chain of c-Kit kinase (P10721 26-976): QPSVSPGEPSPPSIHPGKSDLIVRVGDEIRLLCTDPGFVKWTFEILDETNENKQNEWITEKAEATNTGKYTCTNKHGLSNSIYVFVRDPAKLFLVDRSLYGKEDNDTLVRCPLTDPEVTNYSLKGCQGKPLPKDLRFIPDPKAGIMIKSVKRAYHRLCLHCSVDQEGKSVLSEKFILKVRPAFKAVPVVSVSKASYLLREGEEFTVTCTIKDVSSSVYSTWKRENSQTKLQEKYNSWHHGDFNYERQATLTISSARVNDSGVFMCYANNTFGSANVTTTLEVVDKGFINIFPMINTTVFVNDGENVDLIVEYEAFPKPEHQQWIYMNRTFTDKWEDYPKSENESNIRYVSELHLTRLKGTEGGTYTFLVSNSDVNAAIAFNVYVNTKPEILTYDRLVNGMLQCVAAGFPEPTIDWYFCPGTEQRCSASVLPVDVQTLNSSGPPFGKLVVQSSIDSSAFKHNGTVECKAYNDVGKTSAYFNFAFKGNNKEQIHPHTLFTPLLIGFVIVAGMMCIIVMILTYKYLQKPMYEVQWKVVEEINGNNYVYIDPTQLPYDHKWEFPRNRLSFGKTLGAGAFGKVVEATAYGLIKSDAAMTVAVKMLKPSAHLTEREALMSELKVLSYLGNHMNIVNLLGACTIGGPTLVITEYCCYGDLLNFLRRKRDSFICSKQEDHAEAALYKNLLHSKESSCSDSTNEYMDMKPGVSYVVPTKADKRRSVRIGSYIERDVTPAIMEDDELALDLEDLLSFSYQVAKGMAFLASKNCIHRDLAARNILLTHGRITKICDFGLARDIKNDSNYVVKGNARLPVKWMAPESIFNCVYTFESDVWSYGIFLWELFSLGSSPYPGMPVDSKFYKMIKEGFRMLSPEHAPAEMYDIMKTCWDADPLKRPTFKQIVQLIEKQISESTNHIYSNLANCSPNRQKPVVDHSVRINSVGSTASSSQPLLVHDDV

`CCOc1ccc(-c2[nH]c(C3(C)CCN(c4ncnc5[nH]c(-c6ccc(N7CCOCC7)nc6)cc45)CC3)nc2C)cc1` [P-3227, 4-[5-[4-[4-[5-(4-ethoxyphenyl)-4-methyl-1H-imidazol-2-yl]-4-methyl-1-piperidyl]-7H-pyrrolo[2,3-d]pyrimidin-6-yl]-2-pyridyl]morpholine] had a negative-log IC50 (pIC50) in assay [1] of more than 5.00. Besides, the 50% inhibitory concentration (IC50) against c-Kit kinase was 0.0001 to 1 µM.

In assay [1], `COc1ccc(-c2[nH]c(C3(C)CCN(c4ncnc5[nH]c(-c6ccc(NS(C)(=O)=O)cc6)cc45)CC3)nc2C)cc1C` [P-3228, N-[4-[4-[4-[5-(4-methoxy-3-methyl-phenyl)-4-methyl-1H-imidazol-2-yl]-4-methyl-1-piperidyl]-7H-pyrrolo[2,3-d]pyrimidin-6-yl]phenyl]methanesulfonamide] gave a negative logarithm of the IC50 (pIC50) of more than 5.00. For the same compound, the 50% inhibitory concentration (IC50) against c-Kit kinase was in the range of 0.0001 to 1 µM.

The compound `CCOc1ccc(-c2[nH]c(C3(C)CCN(c4ncnc5[nH]c(-c6ccc(C(N)=O)cc6)cc45)CC3)nc2C)cc1` [P-3229, 4-[4-[4-[5-(4-ethoxyphenyl)-4-methyl-1H-imidazol-2-yl]-4-methyl-1-piperidyl]-7H-pyrrolo[2,3-d]pyrimidin-6-yl]benzamide] had a negative logarithm of the IC50 (pIC50) in assay [1] of more than 5.00. This compound also displayed a 50% inhibitory concentration (IC50) against c-Kit kinase of 0.0001 to 1 µM.

For the compound `CCOc1ccc(-c2[nH]c(C3(C)CCN(c4ncnc5[nH]c(-c6ccc(NS(C)(=O)=O)cc6)cc45)CC3)nc2C)cc1` [P-3230, N-[4-[4-[4-[5-(4-ethoxyphenyl)-4-methyl-1H-imidazol-2-yl]-4-methyl-1-piperidyl]-7H-pyrrolo[2,3-d]pyrimidin-6-yl]phenyl]methanesulfonamide], the negative-log IC50 (pIC50) in assay [1] is more than 5.00. This compound also came in with an IC50 against c-Kit kinase of 0.0001 to 1 µM.

As for `Cc1nc(C2(C)CCN(c3ncnc4[nH]c(-c5ccc(C(N)=O)cc5)cc34)CC2)[nH]c1-c1cccc(OC(F)F)c1` [P-3231, 4-[4-[4-[5-[3-(difluoromethoxy)phenyl]-4-methyl-1H-imidazol-2-yl]-4-methyl-1-piperidyl]-7H-pyrrolo[2,3-d]pyrimidin-6-yl]benzamide], the pIC50 in assay [1] is more than 5.00. Moreover, the IC50 at c-Kit kinase was in the range of 0.0001 to 1 µM.

Take `Cc1nc(C2(C)CCN(c3ncnc4[nH]c(-c5ccc(NS(C)(=O)=O)cc5)cc34)CC2)[nH]c1-c1cccc(OC(F)F)c1` [P-3232, N-[4-[4-[4-[5-[3-(difluoromethoxy)phenyl]-4-methyl-1H-imidazol-2-yl]-4-methyl-1-piperidyl]-7H-pyrrolo[2,3-d]pyrimidin-6-yl]phenyl]methanesulfonamide]: the pIC50 in assay [1] was more than 5.00. Moreover, on c-Kit kinase, the half-maximal inhibitory concentration (IC50) was 0.0001 to 1 µM.

On to `Cc1nc(C2(C)CCN(c3ncnc4[nH]c(-c5ccc(OCC(=O)O)cc5)cc34)CC2)[nH]c1-c1cccc(OC(F)F)c1` [P-3233, 2-[4-[4-[4-[5-[3-(difluoromethoxy)phenyl]-4-methyl-1H-imidazol-2-yl]-4-methyl-1-piperidyl]-7H-pyrrolo[2,3-d]pyrimidin-6-yl]phenoxy]acetic acid], for which, in assay [1], the negative logarithm of the IC50 (pIC50) is more than 5.00. Further, the 50% inhibitory concentration (IC50) against c-Kit kinase fell in the range of 0.0001 to 1 µM.

In the case of `COc1cccc(-c2[nH]c(C3(C)CCN(c4ncnc5[nH]c(-c6ccc(NS(C)(=O)=O)cc6)cc45)CC3)nc2C)c1` [P-3234, N-[4-[4-[4-[5-(3-methoxyphenyl)-4-methyl-1H-imidazol-2-yl]-4-methyl-1-piperidyl]-7H-pyrrolo[2,3-d]pyrimidin-6-yl]phenyl]methanesulfonamide], in assay [1], the pIC50 is more than 5.00. At c-Kit kinase, the concentration for half-maximal inhibition (IC50) lay in the range of 0.0001 to 1 µM.

As for `CNC(=O)c1ccc(-c2cc3c(N4CCC(C)(c5nc(C)c(-c6ccc(C(F)F)cc6)[nH]5)CC4)ncnc3[nH]2)cn1` [P-3235, 5-[4-[4-[5-[4-(difluoromethyl)phenyl]-4-methyl-1H-imidazol-2-yl]-4-methyl-1-piperidyl]-7H-pyrrolo[2,3-d]pyrimidin-6-yl]-N-methyl-pyridine-2-carboxamide], the negative logarithm of the IC50 (pIC50) in assay [1] is more than 5.00. The IC50 on c-Kit kinase lay within 0.0001 to 1 µM.

As to `CNC(=O)c1ccc(-c2cc3c(N4CCC(C)(c5nc(C)c(-c6cccc(OC(F)F)c6)[nH]5)CC4)ncnc3[nH]2)cn1` [P-3236, 5-[4-[4-[5-[3-(difluoromethoxy)phenyl]-4-methyl-1H-imidazol-2-yl]-4-methyl-1-piperidyl]-7H-pyrrolo[2,3-d]pyrimidin-6-yl]-N-methyl-pyridine-2-carb oxamide], in assay [1], the negative-log IC50 (pIC50) was more than 5.00. The same compound returned a concentration for half-maximal inhibition (IC50) against c-Kit kinase of 0.0001 to 1 µM.

As to `Cc1nc(C2(C)CCN(c3ncnc4[nH]c(-c5ccc(N6CCOCC6)nc5)cc34)CC2)[nH]c1-c1ccc(C(F)F)cc1` [P-3237, 4-[5-[4-[4-[5-[4-(difluoromethyl)phenyl]-4-methyl-1H-imidazol-2-yl]-4-methyl-1-piperidyl]-7H-pyrrolo[2,3-d]pyrimidin-6-yl]-2-pyridyl]morpholine], in assay [1], the pIC50 was more than 5.00. Also, the IC50 on c-Kit kinase was 0.0001 to 1 µM.

For `Cc1nc(C2(C)CCN(c3ncnc4[nH]c(-c5ccc(N6CCOCC6)nc5)cc34)CC2)[nH]c1-c1cccc(OC(F)F)c1` [P-3238, 4-[5-[4-[4-[5-[3-(difluoromethoxy)phenyl]-4-methyl-1H-imidazol-2-yl]-4-methyl-1-piperidyl]-7H-pyrrolo[2,3-d]pyrimidin-6-yl]-2-pyridyl]morpholine], in assay [1], the negative-log IC50 (pIC50) was more than 5.00. Also, the IC50 against c-Kit kinase was in the range of 0.0001 to 1 µM.

On to `Cc1nc(C2(C)CCN(c3ncnc4[nH]c(-c5ccc(C(N)=O)cc5)cc34)CC2)[nH]c1-c1ccc(C(F)F)cc1` [P-3239, 4-[4-[4-[5-[4-(difluoromethyl)phenyl]-4-methyl-1H-imidazol-2-yl]-4-methyl-1-piperidyl]-7H-pyrrolo[2,3-d]pyrimidin-6-yl]benzamide], for which the pIC50 in assay [1] was more than 5.00. The same compound had an IC50 against c-Kit kinase of 0.0001 to 1 µM.

With `Cc1nc(C2(C)CCN(c3ncnc4[nH]c(-c5ccc(OCC(=O)O)cc5)cc34)CC2)[nH]c1-c1ccc(C(F)F)cc1` [P-3240, 2-[4-[4-[4-[5-[4-(difluoromethyl)phenyl]-4-methyl-1H-imidazol-2-yl]-4-methyl-1-piperidyl]-7H-pyrrolo[2,3-d]pyrimidin-6-yl]phenoxy]acetic acid], in assay [1], the pIC50 was more than 5.00. This compound registered a half-inhibitory concentration (IC50) against c-Kit kinase of 0.0001 to 1 µM.

`Cc1nc(C2(C)CCN(c3ncnc4[nH]c(-c5ccc(OCC(=O)O)cc5)cc34)CC2)[nH]c1-c1ccc(OC(F)F)cc1` [P-3241, 2-[4-[4-[4-[5-[4-(difluoromethoxy)phenyl]-4-methyl-1H-imidazol-2-yl]-4-methyl-1-piperidyl]-7H-pyrrolo[2,3-d]pyrimidin-6-yl]phenoxy]acetic acid] gave a negative-log IC50 (pIC50) in assay [1] of more than 5.00. At c-Kit kinase, this compound gave an IC50 of 0.0001 to 1 µM.

Compound `Cc1nc(C2(C)CCN(c3ncnc4[nH]c(-c5cnn(C(F)F)c5)cc34)CC2)[nH]c1-c1ccc(OC(F)F)cc1` [P-3242, 4-[4-[5-[4-(difluoromethoxy)phenyl]-4-methyl-1H-imidazol-2-yl]-4-methyl-1-piperidyl]-6-[1-(difluoromethyl)pyrazol-4-yl]-7H-pyrrolo[2,3-d]pyrimidine] showed a pIC50 in assay [1] of more than 5.00. The compound further had a half-inhibitory concentration (IC50) at c-Kit kinase of 0.0001 to 1 µM.

Consider `CCOc1ccc(-c2[nH]c(C3(C)CCN(c4ncnc5[nH]c(-c6ccc(C(N)=O)cc6)cc45)CC3)nc2C)cc1C` [P-3243, 4-[4-[4-[5-(4-ethoxy-3-methyl-phenyl)-4-methyl-1H-imidazol-2-yl]-4-methyl-1-piperidyl]-7H-pyrrolo[2,3-d]pyrimidin-6-yl]benzamide], for which the negative logarithm of the IC50 (pIC50) in assay [1] was more than 5.00. Also, the IC50 on c-Kit kinase fell in the range of 0.0001 to 1 µM.

Source of the values: patent US9771369B2, “Compounds and methods for kinase modulation, and indications therefor” (Plexxikon Inc., priority 2014, dated 2017).
